Source: patent publication US20260176228A1, “MODULATORS OF LIVER RECEPTOR HOMOLOGUE 1 (LRH-1) AND USES” (Emory University, priority 2022, published 2026)

Assays:
[1] = target: T1, LRH-1 LBD (Homo sapiens, UniProt O00482); assay: Thermal stability assay (Tycho NT.6) of LRH-1 LBD complexed with ligands; format: binding; conditions: LRH-1 LBD with 5-fold molar excess of ligand; for Inflection Point (Thermal Stability), shift in parentheses: value in parentheses
T1 construct: LRH-1 LBD (residues 299-541) in the pMSC7 vector; His tag; made in house; host or cells: BL21 (DE3) pLysS E. coli
T1 sequence (O00482 299-541): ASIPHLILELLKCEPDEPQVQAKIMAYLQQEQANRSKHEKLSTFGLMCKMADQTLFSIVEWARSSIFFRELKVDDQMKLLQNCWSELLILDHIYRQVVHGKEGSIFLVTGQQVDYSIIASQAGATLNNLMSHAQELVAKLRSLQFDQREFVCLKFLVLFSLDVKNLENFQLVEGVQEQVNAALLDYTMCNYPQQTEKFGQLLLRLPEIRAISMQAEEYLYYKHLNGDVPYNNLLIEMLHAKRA
Experimental: Thermal shift was also assessed for each of the compounds to determine the protein thermal stability. Thermal stability of the LRH-1 LBD complexed with ligands was determined using a Tycho NT.6 Nanotemper. The LRH-1 LBD was incubated with 5-fold molar excess of ligand (final DMSO concentration was 1.4%) overnight at 4° C. in assay buffer (150 mM NaCl, 20 mM Tris-HCl, and 5% glycerol (pH 7.4)). Complexes were centrifuged at high speed for five minutes and then loaded into capillaries. Tryptophan/tyrosine fluorescence was monitored at wavelengths of 330 nm and 350 nm over a 30° C./min gradient (35° C.-95° C.). The inflection point was determined with Tycho NT.6 software. Two separate experiments were conducted in triplicate.

[2] = test system: other nuclear receptors (NRs); assay: Nuclear receptor cross-reactivity in reporter cells; format: cell-based; conditions: 2 μM in reporter cells; normalized to reference agonist for each receptor
Experimental: 6N-10CA-ME was introduced to reporter cells at 2 μM and the activity of respective NRs was tested. Data are normalized relative to activity induced by the appropriate reference agonist for each receptor.
SF-1 activity was assessed using RT-qPCR for target genes (e.g., Star, Fdps, Hmgcr), though morphological/histological examination of these organs and by monitoring circulating levels of cortisol, aldosterone and androsterone using targeted LC/MS/MS.

[3] = test system: hepatic LRH-1; assay: Liver target gene expression in H-mLRH-1 mice (RNA-seq, RT-qPCR); format: in vivo; conditions: 30 mg/Kg IP injection
Experimental: FIGS. 2A, 2B, and 2C show the target gene expression driven by 6N-10CA-ME. FIG. 2A is a Volcano Plot showing RNA-seq of H-mLRH-1 mice treated with 3 mg/Kg of 6N-10CA-ME via an intraperitoneal injection. FIG. 2B is a Volcano Plot showing RNA-seq of H-mLRH-1 mice treated with 30 mg/Kg of 6N-10CA-ME via an intraperitoneal injection. FIG. 2C is a RT-qPCR showing target gene expression at 3 and 30 mg/kg doses.
The tissue distribution of compounds as described herein and the dosage needed for the in vivo activation of hepatic LRH-1 were evaluated. For these studies, H-mLRH-1 mice (male and female; 10 weeks of age) were used. A single dose time course experiment was conducted in which different cohorts of H-mLRH-1 mice (n=6) were given a high dose (i.e., 30 mg/kg compound) via oral and intraperitoneal (IP) delivery. Liver tissue was harvested and the gene expression of Cyp7a1, Scarb1, ApoA4, and Shp was measured using standard qPCR methods at 1, 3, 6, 12, and 24 hrs. The time of peak target gene expression for a dose finding study was selected. Different cohorts of H-mLRH-1 mice were given 6 doses of the compounds using a half-log scale (i.e., 0, 0.003, 0.03, 0.3, 3, and 30 mg/kg) via oral or IP delivery. Collected liver tissue was used to monitor the expression of the genes listed above.

[4] = target: T2, LRH-1 (Homo sapiens, UniProt O00482); assay: Luciferase reporter (activation) assay in HeLa cells transfected with full-length LRH-1 and SHP-luc reporter; format: cell-based; conditions: 24 hours treatment, interval in brackets in the cell
T2 construct: The transfected plasmids included full-length LRH-1 in a pCI vector (5 ng/well); expressed in transfected cells; host or cells: HeLa cells
T2 sequence (O00482 whole entry): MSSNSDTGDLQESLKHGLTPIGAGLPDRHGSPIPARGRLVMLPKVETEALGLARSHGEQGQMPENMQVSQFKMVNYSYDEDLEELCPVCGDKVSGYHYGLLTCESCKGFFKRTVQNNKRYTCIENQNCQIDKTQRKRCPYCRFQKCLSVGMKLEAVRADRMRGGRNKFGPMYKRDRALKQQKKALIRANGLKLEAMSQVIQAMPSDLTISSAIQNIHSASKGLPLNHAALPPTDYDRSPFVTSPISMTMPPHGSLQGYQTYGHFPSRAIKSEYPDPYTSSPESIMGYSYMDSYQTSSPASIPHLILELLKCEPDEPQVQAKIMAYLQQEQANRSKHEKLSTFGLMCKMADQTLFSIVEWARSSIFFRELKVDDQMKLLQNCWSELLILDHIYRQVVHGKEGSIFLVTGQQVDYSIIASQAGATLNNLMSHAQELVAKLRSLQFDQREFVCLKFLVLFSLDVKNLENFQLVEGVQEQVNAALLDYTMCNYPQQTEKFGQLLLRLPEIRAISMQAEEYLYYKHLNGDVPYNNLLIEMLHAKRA
Experimental: HeLa cells were seeded at a density of 10,000 cells per well in white-walled, clear-bottomed 96-well culture plates. The next day, cells were transfected with LRH-1 and reporters, using Fugene™ HD (Roche; Indianapolis, IN) at a ratio of 5:2 Fugene™ (μl): DNA (μg). The transfected plasmids included full-length LRH-1 in a pCI vector (5 ng/well), and a SHP-luc reporter, encoding the LRH-1 response element and surrounding sequence from the SHP promoter cloned upstream of firefly luciferase in the pGL3 basic vector (50 ng/well). Cells were also co-transfected with a constitutive Renilla luciferase reporter (utilizing the CMV promoter), which was used for normalization of firefly signal (1 ng/well). Control cells received pCI empty vector at 5 ng/well in place of LRH-1-pCI. Agonists were dissolved in DMSO and then diluted into media, with a final concentration of 0.3% DMSO in all wells. Luciferase signal was quantified using the DualGlo™ kit (Promega; Madison, WI). Experiments were conducted at least two times in triplicate. Compounds were synthesized and evaluated in biological assays.

[5] = target: T1, LRH-1 LBD; assay: FP competition (binding) assay; conditions: interval in brackets in the cell
[6] = target: SF-1 (Homo sapiens, UniProt Q13285); assay: SF-1 LUC-reporter gene activation in cultured cells; format: cell-based
Sequence of SF-1 (Q13285 whole entry): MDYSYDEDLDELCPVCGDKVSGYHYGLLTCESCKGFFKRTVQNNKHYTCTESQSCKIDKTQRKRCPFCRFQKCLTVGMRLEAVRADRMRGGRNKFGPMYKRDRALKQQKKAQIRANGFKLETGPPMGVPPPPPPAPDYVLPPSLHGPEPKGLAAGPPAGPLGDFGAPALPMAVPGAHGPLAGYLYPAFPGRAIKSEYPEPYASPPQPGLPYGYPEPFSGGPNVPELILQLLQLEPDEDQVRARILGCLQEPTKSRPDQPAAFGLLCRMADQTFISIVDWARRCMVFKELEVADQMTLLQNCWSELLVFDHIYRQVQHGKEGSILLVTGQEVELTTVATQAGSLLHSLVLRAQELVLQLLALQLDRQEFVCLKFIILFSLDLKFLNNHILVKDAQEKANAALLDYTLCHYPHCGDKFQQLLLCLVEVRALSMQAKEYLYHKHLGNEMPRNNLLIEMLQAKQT

[7] = test system: H-mLRH-1 mice with diet-induced obesity; assay: Diet-induced obesity (HFD) model, glucose tolerance; format: in vivo; conditions: HFD (60% fat) mice, 3 mg/kg, intraperitoneal daily from 12 to 16 weeks of HFD
Experimental: Male and female mice were treated with 6N-10CA-ME via an intraperitoneal injection starting at 12 weeks of High Fat Diet (HFD; 60% fat) feeding and continuing daily to 16 weeks of HFD feeding. (Panel A) Summary of body weights of mice in each group at 0, 12, and 16 weeks of HFD feeding. (Panels B and C) Fasting blood glucose (mg/dL) levels of mice in each group at 12 and 16 weeks of HFD feeding. (Panel D) Glucose tolerance tests (GTT) following administration of glucose (2 g/kg) at 12 and 16 weeks of HFD feeding. (Panel E) Area under the curve (AUC) summary of GTT at 12 and 16 weeks of HFD feeding. Data are represented as means+/−SEM. Sample size is 6-17 per group. **** p<0.0001 vs. chow. Data were analyzed with a two-way ANOVA with Tukey multiple comparison test.
In this study, a mouse model of DIO was used to evaluate the in vivo efficacy of the compounds as described herein, including the ability of the compounds to (1) attenuate hepatic steatosis and (2) improve glucose tolerance and insulin resistance.
H-mLRH-1 mice (male and female) were fed one of the following diets (OpenSource Diets) for 16 weeks starting at 8 weeks of age: (1) Control Diet (10% fat diet, D12450Ji) or (2) High Fat Diet (HFD, 60% fat; D12492i). […]

[8] = test system: diabetic mice; conditions: diabetic mice fed DLPC; Lee et al. Nature 2011; cited from earlier work

Row | Compound | Inflection Point (Thermal Stability) [1] | Inflection Point (Thermal Stability), shift in parentheses [1] | Cross-reactivity with other nuclear receptors [2] | Liver target gene expression [3] | EC50 [4] | Ki [5] | SF-1 activity (LUC-reporter gene activation) [6] | Glucose intolerance [7] | Glucose tolerance and hepatic fat accumulation [8]
1 | C=C(c1ccccc1)C12CCC(NS(N)(=O)=O)C1CC(CCCCOCCCCC(=O)O)=C2c1ccccc1 (stereo not drawn) [Compound 6N-10CA-ME, 5-(4-(3-phenyl-3a-(1-phenylvinyl)-6-(sulfamoylamino)-1,3a,4,5,6,6a-hexahydropentalen-2-yl)butoxy) pentanoic acid] | 65 °C | +9.9 °C | minimal cross-reactivity | elevation of Cyp7a1 and Apoa4 and a reduction in Fasn | 50 nM | 12 nM | displays SF-1 activity | reduces glucose intolerance | –
2 | CCCCCCCCCCCC(=O)OC[C@H](COP(=O)([O-])OCC[N+](C)(C)C)OC(=O)CCCCCCCCCCC [DLPC, dilauroyl-phosphatidylcholine] | – | – | – | – | – | – | – | – | improved glucose tolerance and reduced hepatic fat accumulation
3 | C=C(c1ccccc1)C12CCC(O)C1CC(CCCCOCCCCC(=O)O)=C2c1ccccc1 (stereo not drawn) [Compound 10CA-ME, 5-(4-(6-hydroxy-3-phenyl-3a-(1-phenylvinyl)-1,3a,4,5,6,6a-hexahydropentalen-2-yl)butoxy) pentanoic acid] | 59 °C | +3.9 °C | – | – | 870 nM | 110 nM | – | – | –
4 | C=C(c1ccccc1)C12CCC(NS(N)(=O)=O)C1CC(CCOCCCOCCC(=O)O)=C2c1ccccc1 (stereo not drawn) [Compound 6N-10CA-DE, 3-(3-(2-(3-phenyl-3a-(1-phenylvinyl)-6-(sulfamoylamino)-1,3a,4,5,6,6a-hexahydropentalen-2-yl)ethoxy)propoxy) propanoic acid] | 61 °C | +5.9 °C | – | – | 1200 nM | 480 nM | – | – | –
5 | C=C(c1ccccc1)C12CCC(O)C1CC(CCOCCCOCCC(=O)O)=C2c1ccccc1 (stereo not drawn) [Compound 10CA-DE, 3-(3-(2-(6-hydroxy-3-phenyl-3a-(1-phenylvinyl)-1,3a,4,5,6,6a-hexahydropentalen-2-yl)ethoxy)propoxy) propanoic acid] | 57 °C | +1.9 °C | – | – | 3200 nM | 10000 nM | – | – | –
